This is an account of results in PubChem BioAssay (NCI).

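Cultured in 96-well plates, cells were exposed to test compound for 48 hours across five concentrations. Here, GI50 denotes the concentration required for 50% inhibition of growth. TGI: concentration producing complete growth inhibition.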 Where a SMILES comes first, the peptide text is derived from it. The star is where a group is joined. Cbz = O=C(OCc1ccccc1)*; Boc = CC(C)(C)OC(=O)*; tBu = CC(C)(C)*

Test in all cases: growth of human tumour cells (NCI), 48 h
Assay [1] relates to MCF7 breast.
For assay [2], the system named is T-47D breast.
Assay [3] relates to HL-60(TB) leukemia.
The subject of assay [4] is SK-MEL-5 melanoma.
In assay [5] the test system is SK-OV-3 ovarian.
Assay [6] deals with NCI-H522 lung.
The subject of assay [7] is RPMI-8226 leukemia.
Assay [8] deals with SW-620 colon.
Assay [9] deals with TK-10 renal.
The test system of assay [10] is MDA-MB-231 breast.
Assay [11] relates to OVCAR-3 ovarian.
The test system of assay [12] is COLO 205 colon.
The subject of assay [13] is K-562 leukemia.
Assay [14] relates to SNB-75 CNS.
Assay [15] concerns ACHN renal.

As for `CC(OC(C)(C)C)C(NC(=O)C(CCCCNC(=O)OC(C)(C)C)NC(=O)C(Cc1c[nH]c2ccccc12)NC(=O)C(Cc1ccccc1)NC(=O)OCc1ccccc1)C(=O)NC(Cc1ccccc1)C(=O)O` (stereo unspecified) (Cbz-FWK(Boc)T(tBu)F-OH; configuration not given here), the TGI in assay [1] is greater than 100 µM; in assay [2], 73.6 µM; in [3] it was greater than 100 µM; in assay [4] it was 33.9 µM; in assay [5], greater than 100 µM; in assay [6] it was 85 µM. Further, the TGI in [7] was greater than 100 µM; in [8] it was greater than 100 µM; in assay [9], greater than 100 µM; in assay [10] it was greater than 100 µM; in assay [11], 85 µM; in assay [12] it was greater than 100 µM. The TGI in [13], in assay [14] and in [15] was greater than 100 µM each time.

With `O=C1CCCC2(c3ccccc3)Nc3ccccc3N12` (stereo unspecified), the TGI in assay [1], in [2], in assay [3], in assay [4], in assay [5] and in [6] was greater than 100 µM in each case. Moreover, the TGI in assay [7], in [8], in assay [9], in assay [10], in assay [11] and in [12] was greater than 100 µM throughout. For the same compound, the TGI in assay [13], in assay [14] and in assay [15] was greater than 100 µM in each case.

Take `COC(=O)CCc1cc(O)c2c(c1)C(C(=O)OC)C(c1ccc(O)c(O)c1)O2` (stereo unspecified): the TGI in [1] is greater than 100 µM; in assay [2] it was greater than 72.3 µM; in assay [3], greater than 21.8 µM; in assay [4] it was 20.4 µM; in assay [5] it was greater than 93 µM; in assay [6], greater than 100 µM. For the same compound, the TGI is greater than 92.9 µM in assay [7]; greater than 100 µM in assay [8]; greater than 100 µM in assay [9]; greater than 100 µM in assay [10]; greater than 67.1 µM in assay [11]; greater than 100 µM in [12]. The TGI was 10.6 µM in assay [13], 8.41 µM in assay [14] and greater than 100 µM in assay [15].

With `Cc1ccc(NC(=O)c2cccc(OP(=O)(O)Nc3ccc(C)cc3)c2)cc1`, the TGI in assay [1], in [2], in assay [3], in assay [4], in assay [5] and in assay [6] was greater than 100 µM throughout. In addition, the TGI in [7], in assay [8], in [9], in assay [10], in assay [11] and in assay [12] was greater than 100 µM throughout. The TGI in assay [13], in assay [14] and in assay [15] was greater than 100 µM throughout.

As for `CC12CCC([C@H](C(O)C3CCCCC3)C1=O)C2(C)C` (stereo partly specified), the TGI in assay [1] is greater than 100 µM; in assay [2], greater than 100 µM; in assay [3], 42.4 µM; in assay [4], greater than 100 µM; in assay [5] it was greater than 100 µM; in [6], greater than 100 µM. For the same compound, the TGI in assay [7], in assay [8], in assay [9], in [10], in [11] and in [12] was greater than 100 µM each time. In addition, the TGI in assay [13], in assay [14] and in assay [15] was greater than 100 µM in each case.

Take `CCOP(=O)(CN1CCNCCNCC1)OCC`: the TGI in [1], in assay [2], in [3], in assay [4], in assay [5] and in assay [6] was greater than 100 µM in each case. Further, the TGI in assay [7], in assay [8], in [9], in assay [10], in assay [11] and in assay [12] was greater than 100 µM in each case. Moreover, the TGI in assay [13], in assay [14] and in assay [15] was greater than 100 µM in each case.

Consider `CCNc1cc2c(cc1O)CC[C@@H]1[C@@H]2CC[C@]2(C)[C@@H](O)CC[C@@H]12`, for which the TGI was 25 µM in [1]; greater than 55.3 µM in assay [2]; 8.12 µM in assay [3]; 11.8 µM in assay [4]; greater than 39 µM in assay [5]; 11.8 µM in [6]. Besides, the TGI was 63.5 µM in [7]; 19 µM in [8]; 34 µM in assay [9]; 24.9 µM in assay [10]; 3.63 µM in [11]; 27.8 µM in assay [12]. Further, the values for the TGI in assay [13], in [14] and in assay [15] were greater than 41.4 µM, 11.4 µM and 22 µM, respectively. In addition, in assay [11], the GI50 was 0.815 µM.
